Assay results from ChEMBL document CHEMBL1137222, “Architecture of P2Y nucleotide receptors: structural comparison based on sequence analysis, mutagenesis, and homology modeling” (J Med Chem, 2004).

Tests used:
Type in all cases: cell-based
P2Y purinoceptor 1 [1] = target: P2Y purinoceptor 1 (Homo sapiens, UniProt P47900); experiment: Inhibition concentration required against wild type strain P2Y1 receptor expressed in COS-7 cells is determined using [3H]-MRS2279 as radioligand
P2Y purinoceptor 1 [2] = target: P2Y purinoceptor 1 (Homo sapiens, UniProt P47900, Y203A); experiment: Inhibition concentration required against human Y203A (EL2) mutant strain P2Y1 receptor expressed in COS-7 cells is determined using [3H]MRS2279 as radioligand
P2Y purinoceptor 1 [3] = target: P2Y purinoceptor 1 (Homo sapiens, UniProt P47900, Y203F); experiment: Inhibition concentration required against human Y203F mutant strain P2Y1 receptor expressed in COS-7 cells is determined using [3H]MRS2279 as radioligand
P2Y purinoceptor 1 [4] = target: P2Y purinoceptor 1 (Homo sapiens, UniProt P47900, Y273A); experiment: Inhibition concentration required against human Y273A mutant strain P2Y1 receptor expressed in COS-7 cells is determined using [3H]-MRS2279 as radioligand
P2Y purinoceptor 1 [5] = target: P2Y purinoceptor 1 (Homo sapiens, UniProt P47900, Y273F); experiment: Inhibition concentration required against human Y273F mutant strain P2Y1 receptor expressed in COS-7 cells is determined using [3H]MRS2279 as radioligand
P2Y purinoceptor 1 [6] = target: P2Y purinoceptor 1 (Homo sapiens, UniProt P47900, Y306A); experiment: Inhibition concentration required against human Y306A mutant strain P2Y1 receptor expressed in COS-7 cells is determined using [3H]MRS2279 as radioligand
P2Y purinoceptor 1 [7] = target: P2Y purinoceptor 1 (Homo sapiens, UniProt P47900, Y306F); experiment: Inhibition concentration required against human Y306F mutant strain P2Y1 receptor expressed in COS-7 cells is determined using [3H]MRS2279 as radioligand
Sequence of P2Y purinoceptor 1 (Homo sapiens, UniProt P47900, Y306F) (P47900 whole entry Y306F): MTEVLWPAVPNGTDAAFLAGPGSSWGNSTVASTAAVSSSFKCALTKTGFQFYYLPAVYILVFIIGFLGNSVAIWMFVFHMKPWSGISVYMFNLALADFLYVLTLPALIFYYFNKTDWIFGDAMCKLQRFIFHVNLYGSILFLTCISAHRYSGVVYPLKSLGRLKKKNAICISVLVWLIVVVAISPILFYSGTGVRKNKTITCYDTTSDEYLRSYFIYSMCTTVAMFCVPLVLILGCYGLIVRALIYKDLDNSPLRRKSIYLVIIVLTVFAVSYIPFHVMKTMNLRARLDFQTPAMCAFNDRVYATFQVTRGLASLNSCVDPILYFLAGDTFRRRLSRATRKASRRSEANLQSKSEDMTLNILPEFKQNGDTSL

Sequence of P2Y purinoceptor 1 (Homo sapiens, UniProt P47900) (P47900 whole entry): as the sequence (P47900 whole entry Y306F) above, with F306Y counted along it
Sequence of P2Y purinoceptor 1 (Homo sapiens, UniProt P47900, Y273A) (P47900 whole entry Y273A): as the sequence (P47900 whole entry Y306F) above, with Y273A, F306Y counted along it
Sequence of P2Y purinoceptor 1 (Homo sapiens, UniProt P47900, Y203F) (P47900 whole entry Y203F): as the sequence (P47900 whole entry Y306F) above, with Y203F, F306Y counted along it
Sequence of P2Y purinoceptor 1 (Homo sapiens, UniProt P47900, Y273F) (P47900 whole entry Y273F): as the sequence (P47900 whole entry Y306F) above, with Y273F, F306Y counted along it
Sequence of P2Y purinoceptor 1 (Homo sapiens, UniProt P47900, Y306A) (P47900 whole entry Y306A): as the sequence (P47900 whole entry Y306F) above, with F306A counted along it
Sequence of P2Y purinoceptor 1 (Homo sapiens, UniProt P47900, Y203A) (P47900 whole entry Y203A): as the sequence (P47900 whole entry Y306F) above, with Y203A, F306Y counted along it

An IC50 (P2Y purinoceptor 1 [1]) of 210 nM, an IC50 (P2Y purinoceptor 1 [2]) of 740 nM and an IC50 (P2Y purinoceptor 1 [3]) of 330 nM were found for `CNc1ncnc2c1ncn2[C@H]1CC(OP(=O)(O)O)[C@@H](COP(=O)(O)O)O1` (single isomer, unassigned) in this work. For the same compound, the IC50 (P2Y purinoceptor 1 [4]) was 480 nM, the IC50 (P2Y purinoceptor 1 [5]) was 660 nM and the IC50 (P2Y purinoceptor 1 [6]) was 320 nM. It also gave an IC50 (P2Y purinoceptor 1 [7]) of 980 nM.
